Assay results from patent US20220079953A1, “METHODS FOR MANAGEMENT OF WEIGHT” (The University of Sydney, priority 2018, published 2022).

How the values were obtained:
[1] = Progressive ratio consumption of a high-sugar high-fat food (M&Ms) by non-human primates; type: in vivo, rhesus monkeys; conditions: for trend of breakpoint with increasing doses: 0, 1, 2, 3 mg/kg IM
Source text: Individuals who are overweight or obese frequently report intense cravings for, and motivation to, consume food. Here we model the motivational aspects that can drive excessive food-seeking and consumption, which can lead to overweight and obesity by studying rhesus monkeys who must respond under a progressive ratio to receive M&Ms (which are high in both fat and sugar). A progressive ratio requires subjects to work increasingly harder to obtain reinforcement, modelling the intense motivation and craving characteristic of excessive food-seeking and consumption in individuals who are obese, overweight or at risk of being overweight.
Five female rhesus monkeys were trained to press a lever to self-administer M&Ms. Under a progressive ratio, subjects responded for a reinforcer of either 1 or 5 M&Ms. The ratio began at either 25 (two subjects) or 50 (three subjects) responses per reinforcement and increased by 40% after each reinforcer delivery. SOC-1 was administered IM using a within-subjects design whereby all monkeys received doses of 0, 1, 2 and 3 mg/kg SOC-1. One dose per subject was administered prior to each progressive ratio test session. Breakpoint refers to the number of times the monkeys would press the lever to receive a single reinforcer before giving up.

[2] = Sucrose self-administration under FR5 schedule; type: in vivo, Sprague Dawley rats; conditions: 10% sucrose; for active lever presses / number of sucrose rewards received: 15 min before session, p<0.001
Source text: This model induces high levels of sucrose consumption and sucrose seeking in rats, akin to the unhealthy high sugar diets that are a major determinant of obesity. Excessive consumption of sugar-sweetened beverages are especially associated with increased risk of obesity and type 2 diabetes. Thus, the model chosen here is particularly well suited as it involves escalating voluntary consumption of high-sucrose solution by rats, providing both face and construct validity.
Male Sprague Dawley rats were water deprived for 19.5 hours before the start of sucrose self-administration. Water deprivation continued for the first five days of self-administration. Initially, rats were trained during daily 30 minute FR-1 scheduled sessions to lever press for sucrose (10%). Stable responding under the FR-1 schedule was achieved within 10 days. Rats were then transferred to an FR2 and FR3 schedule for a minimum of three days, and then an FR5 schedule until lever pressing stabilised. Subsequently SOC-1 testing began. Each test day was separated by 2-3 FR-5 scheduled sessions. Rats received SOC-1 in an ascending dose sequence (0, 5, and 10 mg/kg, ip), which was administered 15 minutes prior to the test session. On the final test session, rats received a vehicle injection to ensure rats continued to self-administer sucrose at high levels when not receiving treatment with SOC-1.

[3] = Reinstatement of sucrose-seeking; type: in vivo, Sprague Dawley rats; conditions: for reinstatement of sucrose seeking: 15 min before session, p<0.001 vs 0 mg/kg reinstatement
Source text: Sugar is a highly palatable food component. This contributes greatly to the maintenance of the high sugar diets that can lead to obesity. Once a healthier diet has been established, including cessation of consumption of high sugar foods, it can be difficult for individuals to maintain that healthier diet. Specifically, after a period of not consuming the high sugar foods individuals can again start seeking out and consuming those foods. Here we model this resumption of high-sugar diet consumption using a rat model of reinstatement of sucrose self-administration to assess whether SOC-1 might reduce motivation to resume consumption of high-sugar foods.
Male Sprague Dawley rats were water deprived for 19.5 hours before the start of sucrose self-administration. Water deprivation continued for the first five days of self-administration. Rats were allowed to acquire self-administration of sucrose (10%) during 30-minute FR-1 scheduled sessions for 20 days. Following this, rats were exposed to daily 30-minute extinction sessions. Rats met the extinction criteria (minimum of 10 days and less than 15 active lever presses per session for 2 consecutive days) after 10 sessions. Once the extinction criteria were met, rats underwent reinstatement testing. Each reinstatement test session was separated by two extinction days. Prior to each reinstatement session, rats received an injection of vehicle or SOC-1. Fifteen minutes later, they were placed in the testing chamber, where they had access to 0.3 ml sucrose, which they could lever press for. Rats received SOC-1 in an ascending dose sequence (0, 5, 10 mg/kg, ip). On the reinstatement session subsequent to SOC-1 dose testing, an additional vehicle session was conducted to ensure that rats continued to reinstate to sucrose-seeking behaviour when no treatment was given.

[4] = Extinction of food reward-associated lever pressing in food restricted rats; type: in vivo, Long-Evans rats; conditions: all doses tested (5, 10, 20 mg/kg p.o.), 30 min before session
Experimental: Adult male Long-Evans rats were allowed to feed freely until they reached a target weight of 320-340 g. Rats were then maintained at this weight by restricting feeding. Once target weight had been reached, each rat was placed in an operant test chamber and was trained to press the right lever to receive a 45 mg food pellet under an FR1 schedule of reinforcement during daily 15 min sessions.
Once stable responding (right-side lever pressing+/−10% of the mean of the previous three sessions) had been established, drug testing commenced. Rats were pre-treated with SOC-1 (0, 5, 10, 20 mg/kg) administered by oral gavage (p.o.) 30 min prior to the start of the session.

[5] = Inhibition of weight gain in rats; type: in vivo, Sprague Dawley rats; conditions: 30 mg/kg oral gavage once daily for 10 days; ad libitum standard chow
Experimental: 20 adult male Sprague Dawley rats were given ad libitum access to standard rat chow in their home cage over the course of the experiment. Rats were divided into four equally sized groups and were treated once daily with either 0, 5, 10 or 30 mg/kg SOC-1 via oral gavage for 10 days. Body weights were recorded daily.

## Cn1ncc2c1Nc1ccccc1NC2 [SOC-1]
[1]; reinforcement 1 M&M, trend analysis p=0.012
  trend of breakpoint with increasing doses: significant linear decrease in breakpoint
[1]; reinforcement 1 M&M, 2 mg/kg IM, p=0.015 vs 0 mg/kg
  breakpoint (lever presses for a single reinforcer before giving up): significantly reduced the breakpoint
[1]; reinforcement 1 M&M, 3 mg/kg IM, p=0.014 vs 0 mg/kg
  breakpoint (lever presses for a single reinforcer before giving up): significantly reduced the breakpoint
[1]; reinforcement 5 M&Ms, trend analysis p=0.025
  trend of breakpoint with increasing doses: significant linear decrease in breakpoint
[1]; reinforcement 5 M&Ms, 3 mg/kg IM, p=0.021 vs 0 mg/kg
  breakpoint (lever presses for a single reinforcer before giving up): significantly reduced the breakpoint
[2]; 5 mg/kg ip
  active lever presses: significantly decreased
  number of sucrose rewards received: significantly decreased
[2]; 10 mg/kg ip
  active lever presses: significantly decreased
  number of sucrose rewards received: significantly decreased
[2]; 5 and 10 mg/kg ip
  inactive lever presses: no significant effect
[3]; 5 mg/kg ip
  reinstatement of sucrose seeking: completely prevented reinstatement
[3]; 10 mg/kg ip
  reinstatement of sucrose seeking: completely prevented reinstatement
[3]; reinstatement sessions, any dose (5, 10 mg/kg ip)
  inactive lever presses: no significant effect
[4]
  non-reinforced responding for a food pellet: significantly reduced
[5]
  weight gain over the 10 treatment days: significantly inhibited weight gain
